Measurements taken from patent US6100074A, “Mutant mono-oxygenase cytochrome P-450 cam” (BG plc, priority 1994, dated 2000).

Legend:
P-450cam mutant Y96A [1] = biological target: T1, P-450cam mutant Y96A (Pseudomonas putida, UniProt P00183, Y97A); test: Kapp (dissociation constant), substrate binding, Y96A; conditions: for dissociation constants (Kapp) / affinity, in words: Y96A compared to wild-type
Description: (§1) Binding of potential substrates was investigated by spectroscopic methods.
(§2) ^a Values are the average of two independent measurements using the
(§3) method of Sligar (S. G. Sligar, Biochemistry, 1976, 15, 5399-5406). The
(§4) value of Kapp is strongly dependent on the concentration of K^+
(§5) in the buffer. At [K^+ ] > 150 mM. Kapp for camphor is 0.6 μM
(§6) for both wildtype and Y96A. Data in this table were determined at [K^
(§7) ] = 70 mM in phosphate buffer, pH 7.4, in order to avoid salting out of
(§8) substrates at higher ion concentrations.
(§9) ^b Saturation not reached.

P-450cam mutant Y96A [2] = biological target: T1, P-450cam mutant Y96A; assay type: binding
P-450cam mutant Y96A [3] = biological target: T1, P-450cam mutant Y96A; test: Hydroxylation of camphor, Y96A; assay type: biochemical; conditions: Y96A compared to wild-type
From the text: This decrease in selectivity can be attributed to the loss of the hydrogen bond between Y96 and camphor.

P-450cam = conditions: wild-type; cited from earlier work
wild type P450cam [4] = biological target: T2, wild type P450cam (Pseudomonas putida, UniProt P00183); test: Kapp (dissociation constant), substrate binding, wild-type; conditions: for Kd: WT, [K+] = 70 mM, phosphate buffer, pH 7.4, average of two measurements
Description: as §1, §2, §3, §4, §5, §6, §7, §8, §9

wild type P450cam [5] = biological target: T2, wild type P450cam; assay type: binding; conditions: for conversion of haem to high-spin form / shift in absorption spectrum, in words: wild-type
P-450cam mutant Y96A [6] = biological target: T1, P-450cam mutant Y96A; assay type: biochemical; design: key: Those substrates where oxidation has been demonstrated by means of NADH turnover are marked with a + sign
P-450cam mutant Y96A [7] = biological target: T1, P-450cam mutant Y96A; test: Gas chromatography of incubation products, Y96A; assay type: biochemical; conditions: 1 mM diphenylmethane, 1 μM P-450cam, 25° C., 30 min
Description: The mutant protein was reconstituted with putidaredoxin and putidaredoxin reductase. Diphenylmethane (5) was added and the mixture was incubated with NADH and oxygen.
(§10) A solution containing 10 μM putidaredoxin, 2 μM putidaredoxin reductase, 1 μM cytochrome P-450cam mono-oyxgenase (wild-type or mutant) and 1 mM diphenylmethane in 100 mM KC1, 20 mM KH2 PO4 pH7.4 was preincubated at 25° C. in a shaker for 5 min. The enzymatic reaction was initiated by firstly adding NADH to a total concentration of 2 mM. Further four aliquots of NADH (to increase the NADH concentration by 1 mM each time) were added in intervals of 5 min and the reaction quenched after 30 min by adding 0.5 ml chloroform. The chloroform layer was analysed by gas chromatography.
Organic extracts of the crude incubation mixture were analysed by gas chromatography. […] The other aromatic hydroxylation products, the ortho and meta isomers, had different retention times. Further confirmation of the identity of the product as structure (6) was provided by mass spectrometry, which gave the correct mass peak at 184.

wild type P450cam [8] = biological target: T2, wild type P450cam; test: biochemical; assay type: binding; conditions: Wild type; 200 μM DTT, 200 μM test compound, phosphate buffer; read-out: Vs DTT (percentage displacement of DTT bound to P-450)
wild type P450cam [9] = biological target: T2, wild type P450cam; test: Turnover rate measured as NADH consumption rate, wild type; assay type: biochemical, P. putida; design: reconstituted with putidaredoxin and putidaredoxin reductase
[10] = biological target: T3, P450cam mutant Y96A, C334A (Pseudomonas putida, UniProt P00183, C335A/Y97A); assay type: biochemical, P. putida; conditions: also contains C334A
T3 construct: reconstituted with putidaredoxin and putidaredoxin reductase
Description: as §10
Reaction products for some substrate compounds have been purified by high performance liquid chromatography and identified by mass spectroscopy, nuclear magnetic resonance, and/or co-elution. […] Table 4(a) to 4(h) details the product distributions for mutant and substrate combinations where this has been elucidated to date.
All mutants listed below also contain the C334A mutation.
Turnover rate measured as NADH consumption rate
(nmole NADH/nmole P450cam/s).

P-450cam mutant Y96A [11] = biological target: T1, P-450cam mutant Y96A; test: biochemical; assay type: binding; conditions: Mutant Y96A; 200 μM DTT, 200 μM test compound, phosphate buffer; read-out: Vs DTT (percentage displacement of DTT bound to P-450)

| Structure (SMILES) | Kd (P-450cam mutant Y96A [1]) | dissociation constants (Kapp) / affinity, in words (P-450cam mutant Y96A [1]) | conversion of haem to high-spin form, in words (P-450cam mutant Y96A [2]) | Kd (wild type P450cam [4]) | conversion of haem to high-spin form / shift in absorption spectrum, in words (wild type P450cam [5]) | NADH turnover? (P-450cam mutant Y96A [6]) | inhibition at 200 µM (wild type P450cam [8]) | Turnover rate measured as NADH consumption rate [10] | percent displacement of bound DTT at 200 µM (P-450cam mutant Y96A [11]) | other results |
| --- | --- | --- | --- | --- | --- | --- | --- | --- | --- | --- |
| CC12CCC(CC1=O)C2(C)C (stereo not shown) [compound 1, camphor] | 12 µM | increased | not fully converted to the high-spin form | 6.3 µM | – | – | – | – | – | hydroxylation selectivity, in words (P-450cam mutant Y96A [3]): less selective; hydroxylation to 5-exo-hydroxycamphor, in words (P-450cam): regio- and stereo-selective hydroxylation |
| O=C1C2CC3CC(C2)CC1C3 [compound 2, adamantanone] | 28 µM | increased | not fully converted to the high-spin form | 12 µM | fully converted the haem to the high-spin form | – | – | – | – | – |
| C1C2CC3CC1CC(C2)C3 [compound 3, adamantane] | 1.4 µM | reduced | – | 8.4 µM | fully converted the haem to the high-spin form | – | – | – | – | – |
| C1CC2CCC1C2 [compound 4, norbornane] | 92 µM | reduced | – | 330 µM | fully converted the haem to the high-spin form | – | – | – | – | – |
| c1ccc(Cc2ccccc2)cc1 [compound 5, diphenylmethane] | 73 µM | greatly enhanced affinity | partial conversion | > 1500 µM | did not give a shift in the absorption spectrum | + | 5% | – | – | new product peak by GC (para-hydroxydiphenylmethane (6)) (P-450cam mutant Y96A [7]): Only one major new peak; binding, in words (wild type P450cam [4]; wild-type): bound poorly |
| C1CCCCCC1 [cycloheptane] | – | – | – | – | – | – | – | 42.5 nmole NADH/nmole P450cam/s | – | Turnover rate measured as NADH consumption rate (wild type P450cam [9]): 4.4 nmole NADH/nmole P450cam/s |
| CCCCCCC [n-Heptane] | – | – | – | – | – | + | 5% | 4.4 nmole NADH/nmole P450cam/s | 40% | ΔSpin high/low (percentage of P-450 converted from low- to high-spin) (wild type P450cam [5]; Wild type, 200 μM test compound, phosphate buffer pH 7.4): 5%; Turnover rate measured as NADH consumption rate (wild type P450cam [9]): 2.7 nmole NADH/nmole P450cam/s |
| CCCCCCCCC [n-Nonane] | – | – | – | – | – | + | – | – | 45% | – |
| CCCCCCCC [n-Octane] | – | – | – | – | – | + | 5% | 5.8 nmole NADH/nmole P450cam/s | 45% | – |
| CCCCC [n-Pentane] | – | – | – | – | – | + | 5% | 5.8 nmole NADH/nmole P450cam/s | 40% | – |
